The text below walks through data of patent US20090156639A1, “COMPOSITIONS AND METHODS OF TREATMENT USING L-TYPE CALCIUM CHANNEL BLOCKERS AND CHOL[…]” (priority 2003, published 2009).

Molecules are shown by their SMILES. Counter-ions that a name gives are not always drawn.

This assay deals with young adult male Sprague-Dawley rats. Put plainly: Novel Object Recognition Memory test (hippocampus-dependent nonspatial memory task). The settings on record: for % Exploration of the novel object: prior to training, test 24 hours after training, n=6; for approximate optimum dosage in the Novel Object Recognition Memory test: from dose response data (FIGS. 1, 2, 4). Format: in vivo, rat.

Description: The general procedure for compound evaluation in Novel Object Recognition Memory (Hippocampus-Dependent Nonspatial Memory Task) is as follows: • 1. The animals are transported in their home cages from the vivarium to a dimly lit (5-6 lux) training room and acclimated for approximately 45 minutes. • 2. The animals are than individually placed in the training/testing environment (an opaque plastic chamber, 61 cm×42 cm×37 cm with bedding on the floor) for 5 minutes of habituation. Thereafter, the animals are returned to their home cage.
They remained in the testing room for approximately 15 minutes after the last animal is habituated before being returned to their colony room.
For the memory test, the objects to be discriminated are a goblet (11 cm in height, 6.5 cm in diameter) and a conical candlestick holder (11 cm in height, 6 cm in diameter) made of green, nontransparent glass. There are multiple copies of each object used for training and testing. Object pairs are randomly assigned within and between conditions. For training, two identical objects are placed 8 cm from the sides of the two short walls of the chamber. • 4. The day after initial habituation, the animals are returned to the testing room and acclimated as described in Step 1. Drug and/or vehicle is then administered according to experimental design (i.p.: 263/8-gauge needle; or p.o.: 18-gauge needle) at an interval ranging from 24 hours prior to 24 hours post-training. The training procedure is begun by placing the animal, nose facing the wall, into the empty chamber at a position in the center of a long wall. After 1 minute of re-habituation, the animal is removed from the chamber and placed in a holding cage (45 cm×26 cm×20 cm) with bedding for a period of 10 seconds. During this delay, the training objects are placed in the chamber. The animal is then returned to the chamber for a 15-minute period of exploration. The animal's movements are observed via cameral located over the chamber and are recorded on videotape. After the training session, the animal is returned to its home cage. The objects are cleaned with an 85% EtOH solution. The animals remain in the testing room for approximately 15 minutes after the last animal is trained before being returned to their colony room. • 5. Following a delay interval (1 hour to several weeks, but usually 24 hours), the animals are again returned to the testing room and acclimated as described in Step 1. After this, individual animals are re-habituated to the empty chamber for 1 minute as was described in Step 4. For the test, two new objects are placed in the chamber: one is identical to the objects used during training, while the other is novel. The position of the novel object is randomized for each animal. The animals are allowed to actively explore until they accumulate a total of 60 seconds of exploration. During the test period, the amount of time spent exploring either the novel or the familiar object is recorded using R. E. Clark's V.P.C. program, which also signals when 60 seconds of exploration has been accumulated. The animal's movements are observed via a camera located over the chamber and are recorded on videotape. Any animal that fails to explore either object or to reach the set criterion within 15 minutes is excluded from analysis. After the test, the animals are returned to their home cage, and then to the colony room. The objects are cleaned with an 85% EtOH solution. • 6.

For `COc1cc2c(cc1OC)C(=O)C(CC1CCN(Cc3ccccc3)CC1)C2` (racemic) [donepezil, (+/−) 2,3-dihydro-5,6-dimethoxy-2-[[1-(phenylmethyl)-4-piperidinyl]methyl]-IH-indene-1-one hydrochloride], the “approximate optimum dosage in the Novel Object Recognition Memory test” value (shortened to “approximate optimum dosage”) is recorded as roughly 0.5 mg/kg. Moreover, the “% Exploration of the novel object” value (donepezil 0.05 mg/kg i.p. alone (suboptimal dose) plus vehicle) turned out to be 50%. In the case of `COCCOC(=O)C1=C(C)NC(C)=C(C(=O)OC(C)C)C1c1cccc(C#N)c1Cl` (single isomer, unassigned; (+)) [Compound A, (+) isopropyl 2-methoxyethyl 4-(2-chloro-3-cyano-phenyl)-1,4-dihydro-2,6-dimethylpyridine-3,5-dicarboxylate], the “approximate optimum dosage” value is given as roughly 10 mg/kg. Further, where the note is “Compound A 1.00 mg/kg i.p. alone (suboptimal dose) plus vehicle”, the “% Exploration of the novel object” value amounted to 50%.

In the case of `CC12CC3CC(C)(C1)CC(N)(C3)C2` [memantine], the “approximate optimum dosage” value is roughly 1.0 mg/kg.
